Data on four compounds can be found in patent publication US20240376378A1, “COLORANT FOR FLUORESCENT LABELING AND FLUORESCENT LABELING AGENT” (artience Co., Ltd., priority 2021, published 2024).

Data set [1] in a line: Measurement of absorbance retention (A1 in PBS / A0 in dimethyl sulfoxide). The format is physicochemical. The following applies: A1/A0 at maximum-absorption wavelength; 2 μM in PBS vs 2 μM in dimethyl sulfoxide, within 5 minutes. Here is the method: The absorbance retention calculated by Formula (I) is calculated as follows.
A colorant solution I is prepared by dissolving the colorant for fluorescent labeling in a soluble organic solvent so that the concentration is 2 μM. The absorption spectrum of the colorant solution I is measured using a spectrophotometer (U-4100, commercially available from Hitachi High-Tech Corporation), and the absorbance A0 at a maximum-absorption wavelength is determined.
In addition, a colorant dispersion II is prepared by dissolving the colorant for fluorescent labeling in a soluble organic solvent so that the concentration is 20 μM, and this is additionally diluted 10-fold with PBS so that the concentration is 2 μM. The absorption spectrum of the colorant dispersion II is measured using a spectrophotometer (U-4100, commercially available from Hitachi High-Tech Corporation), and the absorbance A1 at a maximum-absorption wavelength is determined. It is preferable to measure the absorbance under conditions at 25° C. In addition, it is desirable to measure the absorbance within 5 minutes after the […] is prepared. The colorant dispersion II can be obtained, for example, by diluting a colorant solution 10-fold with PBS at 25° C. and mixing by pipetting 10 times or more.
After each colorant solution was diluted 10-fold with dimethyl sulfoxide to obtain a colorant solution I with a colorant concentration of 2 μM, the absorption spectrum was measured using a spectrophotometer (U-4100, commercially available from Hitachi High-Tech Corporation), and the absorbance A0 at a maximum-absorption wavelength was obtained. In addition, after each colorant solution was diluted 10-fold with phosphate buffered saline (PBS) to obtain a colorant dispersion II with a colorant concentration of 2 μM, the absorption spectrum was measured immediately (within 5 minutes) using the spectrophotometer, and the absorbance A1 at a maximum-absorption wavelength was obtained. Using the obtained values of A0 and A1, the absorbance retention was calculated from Formula (I), and determined based on the following criteria.
• 4: absorbance retention 0.8 or more • 3: absorbance retention less than 0.8 to 0.5 or more • 2: absorbance retention less than 0.5 to 0.3 or more • 1: absorbance retention less than 0.3

Data set [2] concerns Hela cells. The experiment in a line: Evaluation of cell staining: fluorescence intensity by plate reader. The conditions noted are these: 1 μM colorant, 1 hour, washed, plate reader 780 to 800 nm. The format is cell-based. Here is the method: Each colorant solution was diluted 20-fold with an Eagle's minimum essential medium (commercially available from FUJIFILM Wako Pure Chemical Corporation) to prepare a fluorescent labeling agent containing 1 μM of the colorant for fluorescent labeling.
Hela cells were seeded in a 96-well plate (1×10^4 cells/well), and cultured in an incubator (37° C., 5% CO2-containing Air, humidified environment) for 48 hours using an Eagle's minimum essential medium (commercially available from FUJIFILM Wako Pure Chemical Corporation) containing 10% Fetal Bovine Serum (FBS) and 1% penicillin-streptomycin. Then, the medium was removed, and the fluorescent labeling agent prepared above was added to each well. The sample was left in an incubator for 1 hour, and then washed with the Eagle's minimum essential medium (commercially available from FUJIFILM Wako Pure Chemical Corporation). Using a plate reader (SPARK, commercially available from Tecan Group Ltd.), the fluorescence intensity was measured in a range of 780 to 800 nm, and evaluated based on the following criteria. […] The evaluation results are shown in “fluorescence intensity during cell staining” in Table 8.
• 4: fluorescence intensity measurement value 2,000 or more • 3: fluorescence intensity measurement value less than 2,000 to 1,000 or more • 2: fluorescence intensity measurement value less than 1,000 to 500 or more • 1: fluorescence intensity measurement value less than 500

Data set [3] in a line: Measurement of average particle size (Z average, dynamic light scattering) of colorant dispersed component in PBS dispersion. The conditions noted are these: 20 μM DMSO colorant solution diluted 10-fold with PBS to 2 μM, measured within 5 minutes. The data set is classed as physicochemical. Here is the method: The average particle size of the colorant dispersed component contained in the colorant dispersion I can be measured as follows.
A colorant solution is obtained by dissolving a colorant for fluorescent labeling in an organic solvent that can dissolve the colorant for fluorescent labeling so that the concentration is 20 μM. The colorant solution is diluted 10-fold with PBS and mixed to prepare a colorant dispersion I with a concentration of 2 μM.
Here, the method of mixing the colorant solution and the PBS is not particularly limited, and for example, a method of adding a colorant solution to PBS is preferable. Mixing may be performed separately in a plurality of steps. The method of mixing a colorant solution and PBS is not particularly limited, and a method that can quickly achieve a uniform mixing state is desirable. As an example of the mixing method, mixing can be performed by well-known methods such as stirring with a stirrer, pipetting with a pipette, and using a Vortex mixer. The colorant dispersion I can be obtained, for example, by diluting a colorant solution 10-fold with PBS at 25° C. and mixing by pipetting 10 times or more.
The particle size distribution of the colorant dispersion I obtained as above is measured using a particle size distribution measuring device (Zetasizer Nano ZSP, commercially available from Spectris). It is preferable to measure the average particle size under conditions at 25° C. It is desirable to measure the average particle size within 5 minutes after the colorant dispersion I is prepared.
As the value of the average particle size, values such as a Z average particle size, a number average particle size, a volume average particle size, and an area average particle size can be used. In the present invention, the Z average particle size measured by a dynamic light scattering method is defined as the average particle size of the colorant dispersed component contained in the colorant dispersion I.
After each colorant solution was diluted 10-fold with phosphate buffered saline (PBS) to obtain a colorant dispersion I with a colorant concentration of 2 μM, measurement was performed immediately (within 5 minutes) using a particle size distribution measuring device (Zetasizer Nano ZSP, commercially available from Spectris). The Z average particle size of the colorant fine particles (the colorant dispersed component in the colorant dispersion I) of each colorant for fluorescent labeling was determined based on the following criteria. The determination results are shown in “average particle size” in Table 8.
• 4: Z average particle size 5 nm or more to less than 100 nm • 3: Z average particle size 100 nm or more to less than 300 nm • 2: Z average particle size 300 nm or more to 500 nm or less • 1: Z average particle size more than 500 nm

“Aluminum 1, 8, 15, 22-tetrakis(phenylthio)-29H, 31H-phthalocyanine chloride [Comparative compound 3]”: in data set [1], the Absorbance retention is listed as 1 (absorbance retention less than 0.3). Also, the “Fluorescence intensity during cell staining” value in data set [2] was 1 (fluorescence intensity measurement value less than 500). Also, the Average particle size in data set [3] is given as 1 (Z average particle size more than 500 nm).
On the same counts, the results for `O=P(O)(O)CCOc1ccc(-c2cc3c(o2)=CC2=C(C(F)(F)F)c4cc5oc(-c6ccc(OCCP(=O)(O)O)cc6)cc5n4[B-](F)(F)[N+]=32)cc1` [Colorant for fluorescent labeling 24] are 4 (absorbance retention 0.8 or more), 4 (fluorescence intensity measurement value 2,000 or more) and 3 (Z average particle size 100 nm or more to less than 300 nm).
`O=C(O)CCOc1ccc(-c2cc3c(o2)=CC2=C(C(F)(F)F)c4cc5oc(-c6ccc(OCCC(=O)O)cc6)cc5n4[B-](F)(F)[N+]=32)cc1` [Colorant for fluorescent labeling 23]: in data set [1], the Absorbance retention is listed as 4 (absorbance retention 0.8 or more). In data set [2], the “Fluorescence intensity during cell staining” value is reported as 4 (fluorescence intensity measurement value 2,000 or more). Further, the Average particle size in data set [3] is 3 (Z average particle size 100 nm or more to less than 300 nm).
Regarding `CCCCCCCCCCCCCCCCCCN1/C(=C/C=C/C=C/C=C/C2=[N+](CCCCCCCCCCCCCCCCCC)c3ccccc3C2(C)C)C(C)(C)c2ccccc21.[I-]` [Comparative compound 6], the Absorbance retention in data set [1] is 2 (absorbance retention less than 0.5 to 0.3 or more). Moreover, the “Fluorescence intensity during cell staining” value in data set [2] is on record as 1 (fluorescence intensity measurement value less than 500). Moreover, the Average particle size in data set [3] was 2 (Z average particle size 300 nm or more to 500 nm or less).
